Test results taken from patent publication US8557864B2, “Agent having neurotrophic factor-like activity” (Nagoya Industrial Science Research Institute, priority 2007, dated 2013).

Assays:
Format in all cases: in vivo
[1] = system: mice under chronic mild stress; assay: Tail suspension test, compound given at the same time as stress; details: 20, 100 and 500 μg/kg intraperitoneally once per day with stress; stressed 3 week- and 1 week-administration groups
Description: Mice under established chronic mild stress (hereinafter referred to as “stress”) were used for a depression and anxiety disorder-like model animal. Stress was applied as follows. 7-week-old male ddY strain mice fed in one cage for 4 mice were used and first subjected to forced swimming for 15 minutes. Then, the mice were fed in a sloped cage for 2 days, and then rested in a normal cage for 1 day. Then, the mice were fed in a dirt cage moisturized with 200 mL of water for 1 day and then rested in a normal cage for 1 day. Then, the mice were fed in a rotational cage that rotated at 180 rpm for 1 day, and then rested in a normal cage for 1 day. […] For 0 μg/kg administration examples of controls, a phosphoric acid buffer containing 0.1% DMSO (controls were expressed as “PBS” or “0 μg/kg” in the figure shown below) was administered in an amount of 0.25 mL to each of a stressed example and a non-stressed example. […]
A site of 1 cm from the tip of the tail of a mouse was grasped by a hand, being apart from a floor from 10 cm, and an immobility time in suspension for 6 minutes was measured for 2 hours. Since the immobility time prolongs when the mouse has a depressive symptom (condition), a level of the depressive symptom (condition) can be evaluated from the length of the immobility time. […]

[2] = system: mice under chronic mild stress; assay: Burying the glass-marbles test after completion of stress; details: 20 μg/kg and 100 μg/kg; 1 week- and 2 week-administration groups after completion of stress
Description: Tips were bedded so as to have a height of 5 cm in a box with […] and 25 glass marbles (1.6 cm in diameter) were placed thereon at 5 cm-interval and behaviors of mice were observed. The number of buried glass marbles was found by counting each glass marble that was buried in ⅔ or more from visual observation from just above after 15 minutes as one count. The test was performed for 3 hours. Since a mouse under stress having an anxiety symptom (condition) takes such a behavior as burying glass marbles, a level of the anxiety symptom can be evaluated from the number of buried glass marbles.
Example 2 is a behavior test in which the compound 8 was administered to a mouse as well as stress was applied and a suppression effect of the compound 8 on depressive and anxiety symptoms of the mouse was examined. On the other hand, the present example is a behavior test in which only stress was applied for 3 weeks without administering the compound 8 and stress was completed and a therapeutic effect of the compound 8 on depressive and anxiety symptoms of a mouse after removing stress was examined. Stress was applied to a mouse in the same manner as in Example 2. […]

[3] = system: mice under chronic mild stress; assay: Tail suspension test comparing compound 8 and fluvoxamine after chronic mild stress; details: Exp. 2 (1 week after stress); compound 8 500 μg/kg, fluvoxamine 1000 μg/kg intraperitoneally once per day
Description: 7-week-old male ddY strain mice fed in one cage for 4 mice were first subjected to forced swimming for 15 minutes in the same manner as stress in Example 2 (behavior test of mice under stress) (1) described in the paragraph [0063] in the specification. Then, stress for 1 week using 3 kinds of cages was regarded as 1 cycle, and the stress was applied for 3 cycles (3 weeks) and chronic mild stress (CMS) was applied. The compound 8 and fluvoxamine were administered to mice immediately after stress in Exp. 1, 1 week after stress in Exp. 2, and 2 weeks after stress in Exp. 3, respectively, and tail suspension tests were carried out on the respective test groups. In each test group, the compound 8 was adjusted in concentration so as to have each of the doses of […] and fluvoxamine was adjusted in concentration so as to have a dose of 1000 μg/kg, by dissolving in 0.1% DMSO, and each dose of the compound 8 and fluvoxamine were intraperitoneally injected to mice once per day from the time immediately after stress. Further, to 7-week-old male ddY strain mice fed in one cage for 4 mice without stress, the compound 8 and fluvoxamine were administered to carry out the tail suspension tests in the same manner as the stressed mice. FIG. 31 show the result. A significance test was performed in a Student's t-test (*). […] “DAEE” denotes the compound 8 and “Flu” denotes fluvoxamine.

## CCCCCCC/C=C/C(=O)OCC [Compound 8, trans-2-decenoic acid ethyl ester]
[1]
  immobility time, stressed vs non-stressed example: no significant difference
[2]
  number of buried glass marbles, stressed vs non-stressed example: no significant difference
[3]
  effect on depressive symptom (immobility time): had an effect
